We go through 1 compound from patent publication US7014844B2, “Lightening compositions and methods of use” (Avon Products, Inc., priority 2001, dated 2006).

In assay [1] the target is T1, tyrosinase (Mus musculus, UniProt P11344).
T1 construct: Tyrosinase was assayed spectrophotometrically by adding up to 0.1 ml cell extract; endogenous in cells
T1 sequence (P11344 19-533): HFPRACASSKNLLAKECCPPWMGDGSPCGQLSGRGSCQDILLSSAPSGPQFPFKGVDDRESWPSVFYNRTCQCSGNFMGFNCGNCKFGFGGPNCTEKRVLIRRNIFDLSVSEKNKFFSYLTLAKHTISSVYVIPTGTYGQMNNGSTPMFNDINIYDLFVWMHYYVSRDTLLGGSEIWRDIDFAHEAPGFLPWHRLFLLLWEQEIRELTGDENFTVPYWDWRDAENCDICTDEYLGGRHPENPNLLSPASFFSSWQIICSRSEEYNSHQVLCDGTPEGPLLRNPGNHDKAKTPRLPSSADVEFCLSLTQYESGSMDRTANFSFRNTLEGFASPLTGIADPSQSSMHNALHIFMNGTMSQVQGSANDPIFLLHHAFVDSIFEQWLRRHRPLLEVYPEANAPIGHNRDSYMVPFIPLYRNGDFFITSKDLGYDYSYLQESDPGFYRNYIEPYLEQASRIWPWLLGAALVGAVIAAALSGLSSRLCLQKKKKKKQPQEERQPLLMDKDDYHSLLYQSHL
Nature of the assay: Tyrosinase assay. It is filed as biochemical. The following applies: 0.05 wt %; mouse melanoma cell extract; DOPA substrate; 475 nm. On the procedure:
A tyrosinase assay was performed according to the method outlined in Chakraborty et al., 1989, Melanogenic regulatory factors in coated vesicles from melanoma cells, J. Invest. Dermatol. 93: 616–620. Specifically, mouse melanoma cells were dissolved with the addition of 0.1 M sodium phosphate buffer, pH 6.8, containing Triton X-100 (1% vol/vol), at a ratio of 1-5×10^6 cells/ml. After 10 minutes on ice, the extracts were centrifuged at 4° C. (10,000 g, for 10 minutes) and the supernatant fractions were assayed for tyrosinase. Tyrosinase was assayed spectrophotometrically by adding up to 0.1 ml cell extract to 0.2 ml of a solution of freshly prepared DOPA (˜0.5 mg/ml), in a total volume of 0.5 ml of 0.1 M sodium phosphate buffer, pH 6.8. Reactions were carried out at 37° C. in plastic cuvettes, and the appearance of absorption at 475 nm was followed.

The test system of assay [2] is Reconstituted Human Epidermis (keratinocytes and Type IV melanocytes). Put plainly: Reconstructed Pigmented Epidermal Tissue Assay. It is filed as cell-based. The following applies: 0.1 wt %; treated 14 days; absorbance at 490 nm. On the procedure:
A composition containing 0.1 wt % N, N, S (tris) carboxylmethyl cysteamine was tested in a Reconstructed Pigmented Epidermal Tissue Assay. Reconstituted Human Epidermis (tissue) consisting of keratinocytes and Type IV (Fitzpatrick scale) melanocytes (Skin Ethic, France) were grown in maintenance medium obtained from the tissue supplier. This model consists of melanocytes and keratinocytes and the pigmentation of the skin-equivalent is due to melanin. The tissue remained viable through the course of the experimental treatment and actively synthesized and transferred melanin. The skin equivalents were treated for 14 days with the active materials of the present invention and a measure of melanin was obtained by measuring absorbance of the tissue at 490 nm. All studies were conducted in 6-well tissue culture dishes (Falcon), at 37° C. and 5% CO2. All test articles were dissolved in medium. Tissues were fed 1 ml of medium with the active material or medium alone was used as the control. […] After 14 days the tissues were transferred to a 24-well tissue culture dish (Falcon), and pigmentation was assessed using a Packard microplate reader at 490 nm. […] A control baseline reading had been taken on day 2 after the models had equilibrated and used as a baseline tissue pigmentation value. The baseline reading was subtracted from the final readings to eliminate inherent absorbance by the tissue. […]

Assay [3] concerns DHICA polymerase. Put plainly: DHICA polymerase assay. It is filed as biochemical. Particulars: 0.05 wt %; wheat germ agglutinin eluate; 4 hours; 400 nm. On the procedure: A DHICA polymerase assay was performed according to the method disclosed in Chakraborty et al., 1996, Polymerization of 5, 6-dihydroxyindole-2-Carboxylic acid to melanin by the pmell7/silver locus protein, Eur. J. Biochem. 236: 180–188. Specifically, the cell extract (0.5 ml, 150–200 μg protein) was passed through a wheat germ agglutinin column (1 ml bed volume) equilibrated with lysis buffer. The bound material was eluted with 0.5 ml 1M N-acetyl glucosamine, which contains crude DHICA polymerization factor and other melanogenic proteins. A reaction mixture of 0.5 ml containing either the enzyme preparation to be measured (20 μg protein from wheat germ agglutinin eluates) or the appropriate buffer blank, DHICA (0.5 mM), and 100 mM sodium phosphate buffer, pH 7.0. Phenylthiourea was also included to inhibit endogenous tyrosinase activity in the preparation.
Spectrophotomeric reading of the absorbance of the reaction mixture was taken at T=0 and T=4 hours time points at 400 nm. […] An increase in absorbance over that seen in blank tubes was defined as specific DHICA polymerization factor activity.

Assay [4] has as its target T2, DOPAchrome tautomerase (Mus musculus, UniProt P29812).
T2 construct: DCT was assayed spectrophotometrically by adding up to 0.1 ml cell extract; endogenous in cells
Put plainly: DOPAchrome tautomerase (DCT) assay. The assay is classed as biochemical. The following applies: 0.05 wt %; cell extract; phenylthiourea 1 mM; 475 nm. On the procedure:
DOPAchrome tautomerase (DCT) activity was assayed according to the method disclosed in Chakraborty et al., 1998, Effect of arbutin on melanogenic proteins in human melanocytes, Pigment Cell Res. 11: 206–212. Specifically, ice-cold DOPA (0.5 mg per ml of 0.1 M sodium phosphate buffer, pH 6.8) was mixed with Ag2O (30 mg Ag2O: 1 mg DOPA) for about 1 minute and filtered through a 0.22 μm Millipore filter. DCT was assayed spectrophotometrically by adding up to 0.1 ml cell extract to 0.5 ml of a solution of freshly prepared DOPAchrome (˜0.5 mg/ml). Reactions were carried out at room temperature in plastic cuvettes, and the disappearance of absorption at 475 nm was followed. Phenylthiourea (1 mM) was added to the reaction mixture, because the presence of tyrosinase in the cell extract can interfere with the assay. The percentage conversion of DOPAchrome was calculated per mg of protein extract and normalized against the control.

T2 sequence (P29812 24-517): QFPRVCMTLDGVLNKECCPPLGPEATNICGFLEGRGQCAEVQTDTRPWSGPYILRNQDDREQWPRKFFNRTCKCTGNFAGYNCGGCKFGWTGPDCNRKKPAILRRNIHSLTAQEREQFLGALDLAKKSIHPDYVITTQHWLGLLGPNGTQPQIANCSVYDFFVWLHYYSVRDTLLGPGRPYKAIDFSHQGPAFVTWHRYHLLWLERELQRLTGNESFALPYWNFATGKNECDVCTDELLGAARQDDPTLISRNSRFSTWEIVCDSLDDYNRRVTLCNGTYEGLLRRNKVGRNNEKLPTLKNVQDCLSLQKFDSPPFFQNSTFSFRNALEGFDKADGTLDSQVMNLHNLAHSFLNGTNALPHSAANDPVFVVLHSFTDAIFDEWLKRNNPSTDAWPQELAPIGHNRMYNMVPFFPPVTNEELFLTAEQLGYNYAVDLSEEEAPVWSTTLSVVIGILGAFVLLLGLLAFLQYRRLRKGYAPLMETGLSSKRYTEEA

In the case of `O=C(O)CSCCN(CC(=O)O)CC(=O)O` [N, N, S (tris) carboxylmethyl cysteamine], the “average decrease in tyrosinase conversion as compared to the control” value in assay [1] came out at 36%. The “reduction of reconstructed epidermal tissue pigmentation in comparison to control tissue” value in assay [2] is given as “about 40%”. For the same compound, the “average decrease in DHICA Polymerase conversion compared to the control” value in assay [3] is 58%. The “average decrease in DOPAchrome conversion as compared to the control” value in assay [4] stood at 65%.
